In patent US12629348B2, “Method and composition for treating osteoarthritis” (Vireo Systems, Inc., priority 2013, dated 2026):
“Also recorded” adds a separate entry of the source.

Assays:
cyclooxygenase-2 (COX-2) = molecular target: T1, cyclooxygenase-2 (COX-2) (Homo sapiens, UniProt P35354); assay: Inhibition of cyclooxygenase-2 activity
T1 sequence (P35354 18-604): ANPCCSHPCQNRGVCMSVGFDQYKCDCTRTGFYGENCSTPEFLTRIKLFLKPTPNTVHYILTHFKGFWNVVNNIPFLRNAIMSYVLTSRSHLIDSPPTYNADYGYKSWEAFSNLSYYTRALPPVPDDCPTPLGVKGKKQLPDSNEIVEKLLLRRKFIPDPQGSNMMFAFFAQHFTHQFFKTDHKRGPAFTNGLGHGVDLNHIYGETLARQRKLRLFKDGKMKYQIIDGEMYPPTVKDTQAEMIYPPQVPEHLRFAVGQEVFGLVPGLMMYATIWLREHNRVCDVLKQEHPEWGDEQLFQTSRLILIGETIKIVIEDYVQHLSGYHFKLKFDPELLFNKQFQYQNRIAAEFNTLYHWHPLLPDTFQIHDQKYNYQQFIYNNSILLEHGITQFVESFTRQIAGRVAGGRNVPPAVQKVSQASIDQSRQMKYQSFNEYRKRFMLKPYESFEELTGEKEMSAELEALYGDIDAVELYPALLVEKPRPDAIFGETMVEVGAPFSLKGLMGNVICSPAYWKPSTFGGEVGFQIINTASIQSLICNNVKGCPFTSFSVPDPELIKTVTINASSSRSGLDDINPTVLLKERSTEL

PGE2 = assay: Plasma PGE2 (PGE2 metabolite competitive EIA) in OA canines; type: in vivo, canine; settings: 36 mg/kg/day oral
Method: The double-blind study was performed on a total of 30 adult canines of various breeds in five different private practice clinics. Owner consent was obtained prior to participation in the study. Each clinic was responsible for enrolling 6 canines into the study. Inclusion criteria for the study consisted of clinical assessment and radiograph confirmation of OA in at least one joint and a score of 22 or greater on the Helsinki chronic pain index (“HCPI”). Use of NSAIDs or other dietary supplements for OA were allowed, provided the current treatment regimens had not been altered for a period of at least three months. […]
In addition to the standard blood chemistry profile, blood samples taken before and at the conclusion of the two-week trial period were analyzed for PGE2 and SAA. […] Both plasma and serum samples were centrifuged at 2000×g for 10 minutes and the plasma and serum supernatants removed and frozen at […] until analyzed for PGE2 and SAA using enzyme-linked immunosorbent assays (“HA”). […] Plasma samples were analyzed for PGE2 using the bicycle PGE2 competitive EIA kit purchased from Cayman Chemical (Ann Arbor, MI). The assay converts PGE2 metabolites into a stable derivative that is measured using EIA. Samples (100 μl) were analyzed in triplicate and PGE2 concentrations determined by use of standard curve. […]

[1] = test system: toll-like receptor-2 (TLR-2); assay: TLR expression in exposed cells (real time PCR or immunofluorescent staining); type: cell-based
Excerpt: (§1) In one embodiment, the anti-inflammatory agent may include ethyl (α-guanido-methyl) ethanoate (“Alpha-GEE”). […] Toll receptors act as a key part of our body's recognition mechanism and appear to be a major factor in the onset and/or progression of various medical indications including those that involve inflammation and pain. In particular, real time PCR or immunofluorescent staining of exposed cells was used to assess expression of toll-like receptor-2 (TLR-2), TLR-3, TLR-4, and TLR-7. […] Without being bound by any particular theory, the mechanism by which TLR expression seems to be altered involves decreased pro-inflammatory mediator production in the wake of exposure to Alpha-GEE.

TLR-4 = assay: as above; type: cell-based
Excerpt: as §1

TLR-3 = assay: as above; type: cell-based
Excerpt: as §1

TLR-7 = assay: as above; type: cell-based
Excerpt: as §1

brain endothelial cells = assay: Release of PGE2 from brain endothelial cells exposed to bacterial endotoxin; type: cell-based; settings: FIG. 1
Excerpt: The brain endothelial cells were first exposed to bacterial endotoxin.

## ethyl (α-guanido-methyl) ethanoate [Alpha-GEE]
cyclooxygenase-2 (COX-2); 0.1 μM
  inhibition of COX-2 activity: about 10%
cyclooxygenase-2 (COX-2); 1 μM (first of three values printed for '1 μM and 100 μM')
  inhibition of COX-2 activity: about 15%
cyclooxygenase-2 (COX-2); 100 μM (third of three values printed for '1 μM and 100 μM')
  inhibition of COX-2 activity: about 15%
cyclooxygenase-2 (COX-2); 0.1-100 μM, FIG. 2
  concentration dependency of inhibition of COX-2: did not show a concentration dependency
cyclooxygenase-2 (COX-2); concentration not printed (second of three values printed for '1 μM and 100 μM')
  inhibition of COX-2 activity: about 18%
PGE2; mean ± SD after two weeks, pre-trial 268 ± 11
  PGE2 plasma concentration, post-trial: 264 ± 10 pg/mL
PGE2; two-week trial, 36 mg/kg/day
  difference between pre-trial and post-trial plasma levels of PGE2: No significant differences; also recorded: no difference
[1]
  expression of TLR-2 in cells: increases expression
TLR-4
  expression of TLR-4 in cells: increases expression
TLR-3
  expression of TLR-3 in cells: increases expression
TLR-7
  expression of TLR-7 in cells: increases expression
Brain endothelial cells; concentration of about 20 μM or more
  reduction in the release of PGE2 from brain endothelial cells: ≥ 50%
Brain endothelial cells; concentration of about 1000 μM or more
  reduction in the release of PGE2 from brain endothelial cells: greater than 50%
